# Results taken from PubChem BioAssay (NCI).
#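 Briefly, cells in 96-well plates were exposed to five compound concentrations for 48 h, and endpoints were estimated by linear interpolation. GI50 is the concentration that inhibits growth by half. At the TGI there is no net growth.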
# Tests used:
# Experiment in all cases: NCI tumour cell line growth inhibition, 48 h
# DU-145 prostate = system: DU-145 prostate
# HT29 colon = system: HT29 colon
# RPMI-8226 leukemia = system: RPMI-8226 leukemia
# SK-MEL-28 melanoma = system: SK-MEL-28 melanoma
# SNB-19 CNS = system: SNB-19 CNS
# SW-620 colon = system: SW-620 colon
# OVCAR-4 ovarian = system: OVCAR-4 ovarian
# NCI-H23 lung = system: NCI-H23 lung
# TK-10 renal = system: TK-10 renal
# OVCAR-8 ovarian = system: OVCAR-8 ovarian
# SR leukemia = system: SR leukemia
# NCI-H460 lung = system: NCI-H460 lung
# LOX IMVI melanoma = system: LOX IMVI melanoma
# HCC-2998 colon = system: HCC-2998 colon
# OVCAR-5 ovarian = system: OVCAR-5 ovarian
# MDA-MB-435 = system: MDA-MB-435
# EKVX NSCLC = system: EKVX NSCLC
# SK-OV-3 ovarian = system: SK-OV-3 ovarian
# SF-539 CNS = system: SF-539 CNS
# MOLT-4 leukemia = system: MOLT-4 leukemia
# MDA-MB-231 breast = system: MDA-MB-231 breast
# M14 melanoma = system: M14 melanoma
# IGROV1 ovarian = system: IGROV1 ovarian
# T-47D breast = system: T-47D breast
# COLO 205 colon = system: COLO 205 colon
# SF-268 CNS = system: SF-268 CNS
# ACHN renal = system: ACHN renal
# CAKI-1 renal = system: CAKI-1 renal
# HS 578T breast = system: HS 578T breast
# U251 CNS = system: U251 CNS
# A498 renal = system: A498 renal
# SK-MEL-2 melanoma = system: SK-MEL-2 melanoma
# SF-295 CNS = system: SF-295 CNS
# NCI-H522 lung = system: NCI-H522 lung
# PC-3 prostate = system: PC-3 prostate
# HOP-92 NSCLC = system: HOP-92 NSCLC
# NCI/ADR-RES ovarian = system: NCI/ADR-RES ovarian
# CCRF-CEM leukemia = system: CCRF-CEM leukemia
# UACC-62 melanoma = system: UACC-62 melanoma
# A549 NSCLC = system: A549 NSCLC
# MCF7 breast = system: MCF7 breast
# OVCAR-3 ovarian = system: OVCAR-3 ovarian
# SNB-75 CNS = system: SNB-75 CNS
# SK-MEL-5 melanoma = system: SK-MEL-5 melanoma
# K-562 leukemia = system: K-562 leukemia
# UACC-257 melanoma = system: UACC-257 melanoma
# UO-31 renal = system: UO-31 renal
# NCI-H226 lung = system: NCI-H226 lung
# HCT-15 colon = system: HCT-15 colon
# HOP-62 NSCLC = system: HOP-62 NSCLC
# 786-0 renal = system: 786-0 renal
# MALME-3M melanoma = system: MALME-3M melanoma
# HCT-116 colon = system: HCT-116 colon
# RXF 393 renal = system: RXF 393 renal
# SN12C renal = system: SN12C renal
# KM12 colon = system: KM12 colon
# BT-549 breast = system: BT-549 breast
structure (smiles),measurement,setting,value
CCNCCS(=O)(=O)NC[C@@]1(c2ccccc2)SC(NC(=O)C(C)(C)C)=NN1C(=O)C(C)(C)C,GI50,DU-145 prostate,< 15.9 nM
same,TGI,DU-145 prostate,> 100 µM
same,GI50,HT29 colon,< 10 nM
same,TGI,HT29 colon,> 100 µM
same,GI50,RPMI-8226 leukemia,< 10 nM
same,TGI,RPMI-8226 leukemia,> 100 µM
same,GI50,SK-MEL-28 melanoma,11.3 µM
same,TGI,SK-MEL-28 melanoma,> 100 µM
same,TGI,SNB-19 CNS,> 100 µM
same,GI50,SW-620 colon,< 10 nM
same,TGI,SW-620 colon,> 100 µM
same,GI50,OVCAR-4 ovarian,35.5 µM
same,TGI,OVCAR-4 ovarian,> 100 µM
same,GI50,NCI-H23 lung,28.2 nM
same,TGI,NCI-H23 lung,> 100 µM
same,GI50,TK-10 renal,19.3 µM
same,TGI,TK-10 renal,> 100 µM
same,GI50,OVCAR-8 ovarian,< 11.7 nM
same,TGI,OVCAR-8 ovarian,> 100 µM
same,GI50,SR leukemia,< 10 nM
same,TGI,SR leukemia,22.3 µM
same,GI50,NCI-H460 lung,< 10 nM
same,TGI,NCI-H460 lung,> 41.9 µM
same,GI50,LOX IMVI melanoma,< 28.5 nM
same,TGI,LOX IMVI melanoma,> 47.3 µM
same,GI50,HCC-2998 colon,< 10 nM
same,TGI,HCC-2998 colon,> 51.2 µM
same,GI50,OVCAR-5 ovarian,138 nM
same,TGI,OVCAR-5 ovarian,> 100 µM
same,GI50,MDA-MB-435,< 10 nM
same,TGI,MDA-MB-435,< 10 nM
same,GI50,EKVX NSCLC,< 31.4 nM
same,TGI,EKVX NSCLC,> 100 µM
same,GI50,SK-OV-3 ovarian,< 10 nM
same,TGI,SK-OV-3 ovarian,> 100 µM
same,GI50,SF-539 CNS,< 10 nM
same,TGI,SF-539 CNS,768 nM
same,GI50,MOLT-4 leukemia,< 13.9 nM
same,TGI,MOLT-4 leukemia,> 100 µM
same,GI50,MDA-MB-231 breast,< 10 nM
same,TGI,MDA-MB-231 breast,28.1 µM
same,GI50,M14 melanoma,< 10 nM
same,TGI,M14 melanoma,20.9 nM
same,GI50,IGROV1 ovarian,2900 nM
same,TGI,IGROV1 ovarian,> 100 µM
same,GI50,T-47D breast,< 10 nM
same,TGI,T-47D breast,> 100 µM
same,GI50,COLO 205 colon,< 10 nM
same,TGI,COLO 205 colon,12.1 µM
same,GI50,SF-268 CNS,< 10 nM
same,TGI,SF-268 CNS,> 100 µM
same,GI50,ACHN renal,4.9 µM
same,TGI,ACHN renal,> 100 µM
same,GI50,CAKI-1 renal,694 nM
same,TGI,CAKI-1 renal,> 100 µM
same,GI50,HS 578T breast,< 10 nM
same,TGI,HS 578T breast,> 100 µM
same,GI50,U251 CNS,< 10 nM
same,TGI,U251 CNS,> 100 µM
same,GI50,A498 renal,< 10 nM
same,TGI,A498 renal,53.4 µM
same,GI50,SK-MEL-2 melanoma,< 10 nM
same,TGI,SK-MEL-2 melanoma,28.4 µM
same,GI50,SF-295 CNS,< 10 nM
same,TGI,SF-295 CNS,1160 nM
same,GI50,NCI-H522 lung,< 10 nM
same,TGI,NCI-H522 lung,< 10 nM
same,GI50,PC-3 prostate,< 10 nM
same,TGI,PC-3 prostate,> 100 µM
same,TGI,HOP-92 NSCLC,> 82.1 µM
same,GI50,NCI/ADR-RES ovarian,4.11 µM
same,TGI,NCI/ADR-RES ovarian,> 45.8 µM
same,GI50,CCRF-CEM leukemia,< 10 nM
same,TGI,CCRF-CEM leukemia,> 100 µM
same,GI50,UACC-62 melanoma,< 10 nM
same,TGI,UACC-62 melanoma,> 100 µM
same,GI50,A549 NSCLC,< 10 nM
same,TGI,A549 NSCLC,> 100 µM
same,GI50,MCF7 breast,< 10 nM
same,TGI,MCF7 breast,> 100 µM
same,GI50,OVCAR-3 ovarian,< 10 nM
same,TGI,OVCAR-3 ovarian,> 100 µM
same,GI50,SNB-75 CNS,< 13.7 nM
same,TGI,SNB-75 CNS,> 73.8 µM
same,GI50,SK-MEL-5 melanoma,< 10 nM
same,TGI,SK-MEL-5 melanoma,20.3 µM
same,GI50,K-562 leukemia,< 10 nM
same,TGI,K-562 leukemia,> 100 µM
same,GI50,UACC-257 melanoma,11.8 µM
same,TGI,UACC-257 melanoma,> 76.9 µM
same,GI50,UO-31 renal,18.8 µM
same,TGI,UO-31 renal,> 100 µM
same,GI50,NCI-H226 lung,> 100 µM
same,TGI,NCI-H226 lung,> 100 µM
same,GI50,HCT-15 colon,399 nM
same,TGI,HCT-15 colon,> 100 µM
same,GI50,HOP-62 NSCLC,35.3 nM
same,TGI,HOP-62 NSCLC,> 100 µM
same,GI50,786-0 renal,341 nM
same,TGI,786-0 renal,> 100 µM
same,GI50,MALME-3M melanoma,10.6 µM
same,TGI,MALME-3M melanoma,30.2 µM
same,GI50,HCT-116 colon,< 10 nM
same,TGI,HCT-116 colon,> 100 µM
same,GI50,RXF 393 renal,< 22.3 nM
same,TGI,RXF 393 renal,> 62.2 µM
same,GI50,SN12C renal,< 10 nM
same,TGI,SN12C renal,> 100 µM
same,GI50,KM12 colon,< 10 nM
same,TGI,KM12 colon,> 100 µM
same,GI50,BT-549 breast,357 nM
same,TGI,BT-549 breast,> 100 µM
